Assay results: ChEMBL document CHEMBL6120991, “Chromones Featuring a [6,6]-Spiroketal Moiety Produced by Coculture of the Endophytic Fungi Chaetomium virescens and Xylaria Grammica” (J Nat Prod, 2025)
Active and inactive are the calls of the source. The rule behind the calls is not given here.

What was measured:
[1] = test system: SW620/AD300; experiment: Cytotoxicity against multidrug resistant human SW620/AD300 cells assessed as inhibition of cell viability at 1 uM measured after 72 hrs by CCK-8 method relative to control; format: functional
[2] = test system: SW620/AD300; experiment: Inhibition of colony formation in human SW620/AD300 cells assessed as decrease in colony number at 1 uM incubated for 7 days by crystal violet staining based analysis; format: functional, cell-based; details: time 7.0 day
[3] = test system: SW620/AD300; experiment: Cytotoxicity against multidrug resistant human SW620/AD300 cells assessed as inhibition of cell viability at 20 uM measured after 72 hrs in presence of paclitaxel by CCK-8 method relative to control; format: functional
[4] = test system: SW620/AD300; experiment: Reversal of multi-drug resistance in human SW620/AD300 cells assessed as decrease in colony number at 20 uM presence of 0.25 uM of paclitaxel incubated for 7 days by crystal violet staining based analysis; format: functional, cell-based; details: time 7.0 day
[5] = test system: SW620/AD300; experiment: Reversal of multi-drug resistance in human SW620/AD300 cells assessed as decrease in colony number at 20 uM presence of 1 uM of paclitaxel incubated for 7 days by crystal violet staining based analysis; format: functional, cell-based; details: time 7.0 day
[6] = test system: SW620/AD300; experiment: Reversal of multi-drug resistance in human SW620/AD300 cells assessed as decrease in frequency of cells in G0/G1 phase at 20 uM presence of 1 uM of paclitaxel incubated for 24 hrs by PI staining based flow cytometry analysis; format: functional, cell-based
[7] = test system: SW620/AD300; experiment: Reversal of multi-drug resistance in human SW620/AD300 cells assessed as increase in frequency of cells in G2/M phase at 20 uM presence of 1 uM of paclitaxel incubated for 24 hrs by PI staining based flow cytometry analysis; format: functional, cell-based
[8] = test system: SW620/AD300; experiment: Inhibition of colony formation in human SW620/AD300 cells assessed as decrease in colony number at 20 uM incubated for 7 days by crystal violet staining based analysis; format: functional, cell-based; details: time 7.0 day
[9] = target: ATP-dependent translocase ABCB1 (Homo sapiens, UniProt P08183); experiment: Induction of thermal stabilization of P-gp in multidrug resistant human SW620/AD300 cells at 20 uM incubated for 30 mins by CESTA analysis; format: cell-based; details: sw620/ad300, 0.5 h
Chain of ATP-dependent translocase ABCB1 (P08183 whole entry): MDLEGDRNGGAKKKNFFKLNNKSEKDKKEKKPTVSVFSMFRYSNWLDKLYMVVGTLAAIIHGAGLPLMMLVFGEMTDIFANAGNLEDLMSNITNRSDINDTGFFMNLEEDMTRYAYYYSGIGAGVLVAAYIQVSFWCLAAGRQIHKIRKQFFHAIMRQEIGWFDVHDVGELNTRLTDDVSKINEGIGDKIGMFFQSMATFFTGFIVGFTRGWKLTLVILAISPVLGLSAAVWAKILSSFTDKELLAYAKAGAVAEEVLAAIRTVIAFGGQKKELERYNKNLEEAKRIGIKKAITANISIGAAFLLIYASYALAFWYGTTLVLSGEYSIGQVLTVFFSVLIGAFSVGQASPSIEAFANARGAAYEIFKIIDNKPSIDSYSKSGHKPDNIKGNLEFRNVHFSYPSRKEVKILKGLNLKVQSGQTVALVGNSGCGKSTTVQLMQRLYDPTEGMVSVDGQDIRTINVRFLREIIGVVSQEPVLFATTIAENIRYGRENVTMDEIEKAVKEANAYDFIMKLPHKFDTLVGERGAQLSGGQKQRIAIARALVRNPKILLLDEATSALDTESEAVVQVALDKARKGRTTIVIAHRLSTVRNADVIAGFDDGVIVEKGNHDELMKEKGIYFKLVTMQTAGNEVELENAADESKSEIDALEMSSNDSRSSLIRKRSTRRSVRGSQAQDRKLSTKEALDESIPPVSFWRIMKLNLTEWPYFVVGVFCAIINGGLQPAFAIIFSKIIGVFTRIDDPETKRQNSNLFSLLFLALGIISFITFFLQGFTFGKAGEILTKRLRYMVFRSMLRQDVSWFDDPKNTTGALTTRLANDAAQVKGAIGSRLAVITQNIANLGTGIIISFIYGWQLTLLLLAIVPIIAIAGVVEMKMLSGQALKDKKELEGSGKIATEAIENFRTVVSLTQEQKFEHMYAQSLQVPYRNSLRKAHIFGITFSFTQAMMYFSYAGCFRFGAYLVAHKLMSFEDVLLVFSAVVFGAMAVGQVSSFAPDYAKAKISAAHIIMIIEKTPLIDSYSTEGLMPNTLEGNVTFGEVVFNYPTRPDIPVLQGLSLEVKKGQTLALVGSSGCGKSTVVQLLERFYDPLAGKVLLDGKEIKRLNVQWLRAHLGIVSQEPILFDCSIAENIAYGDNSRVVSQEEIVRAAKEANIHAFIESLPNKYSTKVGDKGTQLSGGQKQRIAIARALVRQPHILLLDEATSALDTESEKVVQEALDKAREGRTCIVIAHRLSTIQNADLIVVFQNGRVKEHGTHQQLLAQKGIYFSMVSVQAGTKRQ

| SMILES | inhibition at 20 µM [3] | other results |
| --- | --- | --- |
| CC(=O)O[C@H]1C(=O)[C@@]2(C)[C@H]([C@H](OC(=O)c3ccccc3)[C@]3(O)C[C@H](OC(=O)[C@H](O)[C@@H](NC(=O)c4ccccc4)c4ccccc4)C(C)=C1C3(C)C)[C@]1(OC(C)=O)CO[C@@H]1C[C@@H]2O [PACLITAXEL] | – | inhibition at 1 µM [1]: 1.1%; inhibition [2]: inactive |
| COc1cc2oc(C)cc(=O)c2c2c1C[C@H](C)[C@@]1(O2)O[C@@H](C)C[C@H](O)[C@@H]1O | 22% | – |
| COc1cc2oc(C)cc(=O)c2c2c1C[C@@H](C)[C@@]1(O2)O[C@@H](C)C[C@H](O)[C@@H]1O | 19.6% | – |
| COc1cc2oc(C)cc(=O)c2c2c1C[C@@H](C)[C@@]1(C[C@H](OC)C[C@H](C)O1)O2 | 77.8% | Activity [4]: Active; Activity [5]: Active; Activity [6]: Active; Activity [7]: Active; inhibition [8]: inactive; Activity [9]: Active |
| COc1cc2oc(CO)cc(=O)c2c2c1C[C@@H](C)[C@@]1(C[C@@H](NCC/C(C)=C/C(=O)O)C[C@H](C)O1)O2 | 46.4% | – |
| COc1cc2oc(CO)cc(=O)c2c2c1C[C@@H](C)[C@@]1(O2)O[C@@H](C)C[C@H](O)[C@@H]1O | 11.2% | – |
| COc1cc2oc(CO)cc(=O)c2c2c1C[C@H](C)[C@@]1(O2)O[C@@H](C)C[C@H](O)[C@@H]1O | 15.3% | – |
| COc1cc2oc(C)cc(=O)c2c2c1CC[C@@]1(O2)O[C@@H](C)C[C@H](O)[C@@H]1O | 3.1% | – |
| COc1cc2oc(C)cc(=O)c2c2c1C[C@@H](C)[C@@]1(C[C@@H](O)C[C@H](C)O1)O2 | 10% | – |
| COc1cc2oc(C)cc(=O)c2c2c1C[C@H](C)[C@@]1(C[C@H](OC)C[C@H](C)O1)O2 | 29.2% | – |
| COc1cc2oc(C)cc(=O)c2c2c1C[C@H](C)[C@@]1(O2)O[C@@H](C)CCC1=O | 24.5% | – |
| COc1cc2oc(C)cc(=O)c2c2c1CC(C)C1(O2)OC(C)CC(O)C1O (stereo not given) | 11.1% | – |
| COc1cc2oc(C)cc(=O)c2c2c1C[C@@H](C)[C@@]1(C[C@H](O)C[C@H](C)O1)O2 | 0.2% | – |
